Measurements published in ChEMBL document CHEMBL5154709, “Tetrazole derivatives bearing benzodiazepine moiety-synthesis and action mode against virulence of Candida albicans” (Eur J Med Chem, 2022).
Converted amounts (≈) assume the structure as drawn. The source made the active and inactive calls. The rule behind the calls is not given here.

Experiments:
[1] = Cytotoxicity against human TR146 cells at more than 64 ug/ml measured after 24 hrs by XTT assay; format: toxicity, cell-based; conditions: tr146, 24 h, dose 64 µg/ml
[2] = test system: Candida albicans; test: Antifungal activity against Candida albicans SC5314 assessed as inhibition of fungal growth at 16 ug/ml incubated for 18 hrs by M27-A3 based microdilution method relative to control; format: functional
[3] = test system: Candida albicans; test: Antifungal activity against Candida albicans SC5314 assessed as inhibition of fungal growth at 2 ug/ml incubated for 48 hrs by M27-A3 based microdilution method relative to control; format: functional
[4] = test system: Candida albicans; test: Antifungal activity against Candida albicans SC5314 assessed as inhibition of fungal growth at 1 ug/ml incubated for 18 hrs by M27-A3 based microdilution method relative to control; format: functional
[5] = test system: Candida albicans; test: Induction of reactive oxygen species generation in Candida albicans CNB1/cnb1delta mutant assessed as increase in ROS level at 16 ug/ml incubated for 18 hrs by DCFH-DA staining based flow cytometric analysis (reference value: 3.8+/- 4.2%); format: functional; conditions: dose 16 µg/ml
[6] = test system: Candida albicans; test: In vivo antifungal activity against Candida albicans SC5314 infected in Galleria mellonella larvae assessed as prevention of candidiasis at 16 ug/ml administered 1 hr prior to infection measured after 5 days by Hematoxylin and eosin staining; format: functional, organism-based; conditions: dose 16.0 µg/ml, time 5.0 day
[7] = test system: Candida albicans; test: In vivo antifungal activity against Candida albicans SC5314 infected in Galleria mellonella larvae assessed as survival rate of larvae at 16 ug/ml administered 1 hr post infection measured within 5 days by Hematoxylin and eosin staining; format: functional; conditions: SC5314, 120 h, time 5 day
[8] = test system: Candida albicans; test: Antifungal activity against Candida albicans assessed as inhibition of fungal growth measured after 48 hrs by M27-A3 based broth microdilution; format: functional
[9] = test system: Candida albicans; test: Antifungal activity against Candida albicans SC5314 assessed as inhibition of fungal growth at 8 ug/ml incubated for 18 hrs by M27-A3 based microdilution method relative to control; format: functional
[10] = test system: Candida albicans; test: Antifungal activity against Candida albicans SC5314 assessed as inhibition of fungal growth at 0.125 ug/ml incubated for 18 hrs by M27-A3 based microdilution method relative to control; format: functional
[11] = test system: Candida albicans; test: Antifungal activity against Candida albicans SC5314 assessed as inhibition of fungal growth at 0.25 ug/ml incubated for 18 hrs by M27-A3 based microdilution method relative to control; format: functional
[12] = test system: Vero; test: Cytotoxicity against African green monkey Vero cells at > 64 ug/ml measured after 24 hrs by XTT assay; format: toxicity, cell-based; conditions: chlorocebus sabaeus, dose > 64 µg/ml
[13] = Toxicity in Galleria mellonella larvae assessed as change in morphology at 16 ug/ml measured after 5 days by Hematoxylin and eosin staining; conditions: 120 h, dose 16 µg/ml, time 5 day
[14] = test system: Candida albicans; test: Induction of reactive oxygen species generation in Candida albicans SC5314 assessed as increase in ROS level at 16 ug/ml incubated for 18 hrs by DCFH-DA staining based flow cytometric analysis (reference value: 0.77+/- 0.4%); format: functional; conditions: dose 16 µg/ml
[15] = test system: Candida albicans; test: Antifungal against Candida albicans SC5314 biofilm co-cultured with African green monkey Vero cells assessed as apoptotic-like chromatin aggregation of intact hyphae by measuring green fluorescence emission at 16 ug/ml incubated for 18 hrs by PI/acridine orange double staining based confocal laser scanning microscopic analysis; format: functional, organism-based; conditions: dose 16.0 µg/ml
[16] = Toxicity in Galleria mellonella larvae assessed as melanization of larvae at 16 ug/ml measured every 24 hrs for 4 to 5 days relative to control; conditions: at 16 µg/mL, time 4-5 day
[17] = test system: Candida albicans; test: Antifungal activity against Candida albicans SC5314 assessed as inhibition of fungal growth at 0.5 ug/ml incubated for 48 hrs by M27-A3 based microdilution method relative to control; format: functional
[18] = test system: Candida albicans; test: Antifungal against Candida albicans SC5314 biofilm assessed as amorphous layer of cell surface barrier at 16 ug/ml incubated for 18 hrs by Rho123 and Hoechst 33342 double staining based confocal laser scanning microscopic analysis; format: functional, organism-based; conditions: dose 16.0 µg/ml
[19] = test system: Candida albicans; test: Antifungal activity against Candida albicans SC5314 assessed as inhibition of fungal growth at 0.0625 ug/ml incubated for 18 hrs by M27-A3 based microdilution method relative to control; format: functional
[20] = test system: Candida albicans; test: Antifungal activity against Candida albicans SC5314 assessed as inhibition of fungal growth at 4 ug/ml incubated for 18 hrs by M27-A3 based microdilution method relative to control; format: functional
[21] = test system: Candida albicans; test: In vivo antifungal activity against Candida albicans SC5314 infected in Galleria mellonella larvae assessed as survival rate of larvae at 16 ug/ml administered 1 hr prior to infection measured within 5 days by Hematoxylin and eosin staining; format: functional; conditions: SC5314, 120 h, time 5 day
[22] = test system: Candida albicans; test: Antifungal activity against Candida albicans SC5314 assessed as inhibition of fungal growth at 1 ug/ml incubated for 48 hrs by M27-A3 based microdilution method relative to control; format: functional
[23] = test system: Candida albicans; test: Induction of cell cycle arrest in Candida albicans SC5314 assessed as accumulation of cells in G0/G1 phase at 16 ug/ml incubated fro 18 hrs by PI staining based flow cytometry method; format: functional, organism-based; conditions: dose 16.0 µg/ml
[24] = test system: Candida albicans; test: Induction of apoptosis in Candida albicans SC5314 protoplast cells assessed as necrotic cells at 16 ug/ml incubated for 18 hrs by PI/Annexin V staining based flow cytometry assay; format: functional; conditions: dose 16 µg/ml
[25] = test system: Candida albicans; test: Antifungal activity against Candida albicans SC5314 assessed as inhibition of fungal growth at 0.0625 ug/ml incubated for 48 hrs by M27-A3 based microdilution method relative to control; format: functional
[26] = test system: Candida albicans; test: Antifungal activity against Candida albicans assessed as inhibition of fungal growth measured after 48 hrs in presence of exogenous ergosterol by M27-A3 based broth microdilution; format: functional
[27] = test system: Candida albicans; test: Fungicidal activity against Candida albicans SC5314 assessed as inhibition of fungal growth incubated for 48 hrs by M27-A3 based microdilution method; format: functional
[28] = test system: Candida albicans; test: Antifungal activity against Candida albicans SC5314 assessed as inhibition of fungal growth at 4 ug/ml incubated for 48 hrs by M27-A3 based microdilution method relative to control; format: functional
[29] = test system: Candida albicans; test: Antifungal activity against Candida albicans SC5314 assessed as inhibition of fungal growth at 2 ug/ml incubated for 18 hrs by M27-A3 based microdilution method relative to control; format: functional
[30] = test system: Candida albicans; test: Antifungal activity against Candida albicans SC5314 assessed as inhibition of fungal growth at 0.03125 ug/ml incubated for 18 hrs by M27-A3 based microdilution method relative to control; format: functional
[31] = test system: Candida albicans; test: Antifungal activity against Candida albicans SC5314 assessed as inhibition of fungal growth at 8 ug/ml incubated for 48 hrs by M27-A3 based microdilution method relative to control; format: functional
[32] = test system: Candida albicans; test: Induction of reactive oxygen species generation in Candida albicans BWP17 assessed as increase in ROS level at 16 ug/ml incubated for 18 hrs by DCFH-DA staining based flow cytometric analysis (reference value: 7.2+/- 0.2%); format: functional; conditions: dose 16 µg/ml
[33] = test system: Candida albicans; test: Antifungal activity against Candida albicans SC5314 assessed as inhibition of fungal growth at 0.03125 ug/ml incubated for 48 hrs by M27-A3 based microdilution method relative to control; format: functional
[34] = test system: Candida albicans; test: Induction of reactive oxygen species generation in Candida albicans cnb1delta/cnb1delta mutant assessed as increase in ROS level at 16 ug/ml incubated for 18 hrs by DCFH-DA staining based flow cytometric analysis (reference value: 4.7+/- 5.9%); format: functional; conditions: dose 16 µg/ml
[35] = test system: Candida albicans; test: Antifungal activity against Candida albicans SC5314 assessed as inhibition of fungal growth at 0.125 ug/ml incubated for 48 hrs by M27-A3 based microdilution method relative to control; format: functional
[36] = test system: Candida albicans; test: Antifungal activity against Candida albicans SC5314 assessed as inhibition of fungal growth at 0.5 ug/ml incubated for 18 hrs by M27-A3 based microdilution method relative to control; format: functional
[37] = test system: Candida albicans; test: Induction of apoptosis in Candida albicans SC5314 non-protoplast cells assessed as necrotic cells at 16 ug/ml incubated for 18 hrs by PI/Annexin V staining based flow cytometry assay; format: functional; conditions: dose 16 µg/ml
[38] = test system: Candida albicans; test: Antifungal activity against Candida albicans SC5314 assessed as inhibition of fungal growth at 0.25 ug/ml incubated for 48 hrs by M27-A3 based microdilution method relative to control; format: functional

## O=C1CN=C(c2ccccc2Br)c2cc(F)ccc2N1CCCn1nnc(-c2ccc(Cl)cc2)n1
[1]
  Activity: Non-Toxic
[2]
  inhibition at 16 µg/mL: 99.5%
[3]
  inhibition at 2 µg/mL: 100%
[4]
  inhibition at 1 µg/mL: 99%
[5]
  Activity: 4.2%
[6]
  Activity: Active
[7]
  survival at 16 µg/mL: 100%
[8]
  MIC: 64 µg/mL (≈ 116 µM)
[9]
  inhibition at 8 µg/mL: 99%
[10]
  inhibition at 0.125 µg/mL: 98.9%
[11]
  inhibition at 0.25 µg/mL: 99.9%
[12]
  Activity: Toxic
[13]
  Activity: Non-Toxic
[14]
  Activity: 19.6%
[15]
  Activity: Active
[16]
  Activity: 17%
[17]
  inhibition at 0.5 µg/mL: 99%
[18]
  Activity: Active
[19]
  inhibition at 0.0625 µg/mL: 99.3%
[20]
  inhibition at 4 µg/mL: 99.2%
[21]
  survival at 16 µg/mL: 95%
[22]
  inhibition at 1 µg/mL: 99.1%
[23]
  Activity: Active
[24]
  Activity: 81.23%
[25]
  inhibition at 0.0625 µg/mL: 99.3%
[26]
  MIC: 2.56 µg/mL
[27]
  inhibition (INH): 99.24%
[28]
  inhibition at 4 µg/mL: 99.2%
[29]
  inhibition at 2 µg/mL: 99.8%
[30]
  inhibition at 0.03125 µg/mL: 100%
[31]
  inhibition at 8 µg/mL: 99%
[32]
  Activity: 6.8%
[33]
  inhibition at 0.03125 µg/mL: 100%
[34]
  Activity: 3.35%
[35]
  inhibition at 0.125 µg/mL: 98.9%
[36]
  inhibition at 0.5 µg/mL: 99%
[37]
  Activity: 78.23%
[38]
  inhibition at 0.25 µg/mL: 100%
